According to patent US20260265329A1, “POLYPEPTIDE AND DERIVATIVE THEREOF, COMPOSITION, AND USE THEREOF” (HANGZHOU SCIWIND BIOSCIENCES CO., LTD., priority 2023, published 2026):
Starred links: 1 amine or outer side, 2 acyl side, 3 side chain; linkers in the order of their positions; H or OH if unused. Non-standard residues stand in square brackets, D forms with d. Residues, ends and D or L forms follow the SMILES beside them. *: point of attachment. C20 diacid = O=C(O)CCCCCCCCCCCCCCCCCCC(=O)*; γGlu = O=C(O)[C@H](CCC(=O)[*:2])N[*:1]; Hyp = O=C(O)[C@@H]1C[C@@H](O)CN1; NMeD = CN[C@@H](CC(=O)O)C(=O)O; NMeN = CN[C@@H](CC(N)=O)C(=O)O

Key:
human amylin receptors = target: T1, human amylin receptors (Homo sapiens, UniProt O60896+P30988); test: Luciferase assay in stably transfected amylin receptor/CRE-luc CHO cell line; assay type: cell-based; conditions: for Relative activity: EC50 ratio of Cagrilintide to the compound, Cagrilintide 100%; for EC50: amylin receptor/CRE-luc CHO cells, 24 hours incubation, luminescence
T1 construct: host or cells: CHO-K1/Ga15/AMY3 cells, further stably transfected with a CRE-luciferase plasmid
T1 sequence (P30988 25-474): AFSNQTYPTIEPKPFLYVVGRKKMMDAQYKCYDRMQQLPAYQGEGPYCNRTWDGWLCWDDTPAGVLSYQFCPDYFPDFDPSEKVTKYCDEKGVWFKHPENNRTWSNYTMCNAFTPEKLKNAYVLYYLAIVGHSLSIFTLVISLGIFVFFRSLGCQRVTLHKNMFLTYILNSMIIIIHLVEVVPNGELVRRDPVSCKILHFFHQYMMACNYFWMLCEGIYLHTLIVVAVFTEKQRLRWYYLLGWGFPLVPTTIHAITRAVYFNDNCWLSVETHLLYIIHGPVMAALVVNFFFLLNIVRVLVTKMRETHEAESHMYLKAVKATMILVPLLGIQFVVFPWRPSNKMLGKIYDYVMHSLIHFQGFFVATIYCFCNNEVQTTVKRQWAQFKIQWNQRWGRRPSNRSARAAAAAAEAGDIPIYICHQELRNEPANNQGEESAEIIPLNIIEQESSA
T1 sequence (O60896 24-148 partner): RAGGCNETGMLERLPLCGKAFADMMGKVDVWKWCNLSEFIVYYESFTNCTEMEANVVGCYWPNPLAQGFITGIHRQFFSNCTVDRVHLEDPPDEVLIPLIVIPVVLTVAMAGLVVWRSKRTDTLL

[1] = Heat accelerated stability assay, 40° C., detection on 10 d and 20 d; assay type: physicochemical; conditions: 1 mg/mL, pH about 7.4, 40° C.
Description: The derivatives (1 mg/mL) were mixed with sodium dihydrogen phosphate (1.42 mg/mL) and dissolved in ultrapure water. After adjusting pH to about 7.4 with hydrochloric acid/sodium hydroxide, the solution was filtered into a sterilized vial in a clean bench using a 0.22 μm sterile filter. The vial was then capped and placed into the stability test chamber at 40° C. Detections were made on 10d and 20d, and during the assay changes in the characteristics and properties of the polypeptides were observed and recorded. The sample was then centrifuged for 3 min at 10000 rpm at 4° C., and the supernatant was transferred to a liquid phase sample vial for detecting the concentration and purity of the polypeptides using liquid phase chromatography described as below.
Flow rate: 1.0 mL/min; Autosampler temperature: 25° C.; Column temperature: 25° C.; Detection wavelength: 214 nm; Mobile phase A: 110 mM phosphate buffer (pH 5.8): ACN=90:10; Mobile phase B: ACN: IPA: H2O=85:5:10; and Gradient of elution listed in Table 6: […]

SMILES	Relative activity (human amylin receptors) [%]	EC50 (human amylin receptors) [nM]	Reduction in purity, 10 d [1] [%]	Reduction in purity, 20 d ([1]; 20 d) [%]
CC[C@H](C)[C@H](NC(=O)[C@@H]1CCCN1C(=O)[C@H](CCCCN)NC(=O)[C@H](CC(C)C)NC(=O)[C@H](CC(N)=O)N(C)C(=O)[C@H](CC(N)=O)NC(=O)[C@H](CO)NC(=O)[C@H](CO)NC(=O)[C@H](Cc1c[nH]cn1)NC(=O)[C@H](CCCNC(=N)N)NC(=O)[C@H](CC(C)C)NC(=O)[C@H](Cc1ccccc1)NC(=O)[C@H](CC(=O)O)NC(=O)[C@H](C)NC(=O)[C@H](CC(C)C)NC(=O)[C@H](CCCNC(=N)N)NC(=O)[C@H](CCC(N)=O)NC(=O)[C@@H](NC(=O)[C@H](C)NC(=O)[C@H](C)NC(=O)[C@@H](NC(=O)[C@H](CO)NC(=O)[C@H](CC(C)C)NC(=O)[C@H](CCC(N)=O)NC(=O)[C@H](CO)NC(=O)[C@H](C)NC(=O)CC[C@H](NC(=O)CCCCCCCCCCCCCCCCCCC(=O)O)C(=O)O)[C@@H](C)O)[C@@H](C)O)C(=O)N[C@@H](CC(C)C)C(=O)N1CCC[C@H]1C(=O)N1CCC[C@H]1C(=O)N[C@H](C(=O)N[C@@H](CC(N)=O)C(=O)N[C@H](C(=O)NCC(=O)N[C@@H](CO)C(=O)N[C@@H](CC(N)=O)C(=O)N[C@H](C(=O)N1C[C@H](O)C[C@H]1C(N)=O)[C@@H](C)O)C(C)C)[C@@H](C)O [M44] ({C20 diacid-γGlu}-ASQLSTAATQRLADFLRHSSN[NMeN]LKPILPPTNVGSNT[Hyp]-NH2)	130	0.1	21.09	37.35
CC[C@H](C)[C@H](NC(=O)[C@@H]1CCCN1C(=O)[C@H](CCCCN)NC(=O)[C@H](CC(C)C)NC(=O)[C@H](CC(=O)O)N(C)C(=O)[C@H](CC(N)=O)NC(=O)[C@H](CO)NC(=O)[C@H](CO)NC(=O)[C@H](Cc1c[nH]cn1)NC(=O)[C@H](CCCNC(=N)N)NC(=O)[C@H](CC(C)C)NC(=O)[C@H](Cc1ccccc1)NC(=O)[C@H](CC(=O)O)NC(=O)[C@H](C)NC(=O)[C@H](CC(C)C)NC(=O)[C@H](CCCNC(=N)N)NC(=O)[C@H](CCC(N)=O)NC(=O)[C@@H](NC(=O)[C@H](C)NC(=O)[C@H](C)NC(=O)[C@@H](NC(=O)[C@H](CO)NC(=O)[C@H](CC(C)C)NC(=O)[C@H](CCC(N)=O)NC(=O)[C@H](CO)NC(=O)[C@H](C)NC(=O)CC[C@H](NC(=O)CCCCCCCCCCCCCCCCCCC(=O)O)C(=O)O)[C@@H](C)O)[C@@H](C)O)C(=O)N[C@@H](CC(C)C)C(=O)N1CCC[C@H]1C(=O)N1CCC[C@H]1C(=O)N[C@H](C(=O)N[C@@H](CC(N)=O)C(=O)N[C@H](C(=O)NCC(=O)N[C@@H](CO)C(=O)N[C@@H](CC(N)=O)C(=O)N[C@H](C(=O)N1C[C@H](O)C[C@H]1C(N)=O)[C@@H](C)O)C(C)C)[C@@H](C)O [M45] ({C20 diacid-γGlu}-ASQLSTAATQRLADFLRHSSN[NMeD]LKPILPPTNVGSNT[Hyp]-NH2)	129	0.07	6.54	
CC[C@H](C)[C@H](NC(=O)[C@@H]1CCCN1C(=O)[C@H](CCCCN)NC(=O)[C@H](CC(C)C)NC(=O)[C@H](CC(N)=O)NC(=O)[C@H](CCC(N)=O)NC(=O)[C@H](CO)NC(=O)[C@H](CO)NC(=O)[C@H](Cc1c[nH]cn1)NC(=O)[C@H](CCCNC(=N)N)NC(=O)[C@H](CC(C)C)NC(=O)[C@H](Cc1ccccc1)NC(=O)[C@H](CC(=O)O)NC(=O)[C@H](C)NC(=O)[C@H](CC(C)C)NC(=O)[C@H](CCCNC(=N)N)NC(=O)[C@H](CCC(N)=O)NC(=O)[C@@H](NC(=O)[C@H](C)NC(=O)[C@H](C)NC(=O)[C@@H](NC(=O)[C@H](CO)NC(=O)[C@H](CC(C)C)NC(=O)[C@H](CCC(N)=O)NC(=O)[C@H](CO)NC(=O)[C@H](C)NC(=O)CC[C@H](NC(=O)CCCCCCCCCCCCCCCCCCC(=O)O)C(=O)O)[C@@H](C)O)[C@@H](C)O)C(=O)N[C@@H](CC(C)C)C(=O)N1CCC[C@H]1C(=O)N1CCC[C@H]1C(=O)N[C@H](C(=O)N[C@@H](CC(N)=O)C(=O)N[C@H](C(=O)NCC(=O)N[C@@H](CO)C(=O)N[C@@H](CC(N)=O)C(=O)N[C@H](C(=O)N1C[C@H](O)C[C@H]1C(N)=O)[C@@H](C)O)C(C)C)[C@@H](C)O [M46] ({C20 diacid-γGlu}-ASQLSTAATQRLADFLRHSSQNLKPILPPTNVGSNT[Hyp]-NH2)	150	0.06	8.69	
CC[C@H](C)[C@H](NC(=O)[C@@H]1CCCN1C(=O)[C@H](CCCCN)NC(=O)[C@H](CC(C)C)NC(=O)[C@H](CC(N)=O)NC(=O)[C@@H](NC(=O)[C@H](CO)NC(=O)[C@H](CO)NC(=O)[C@H](Cc1c[nH]cn1)NC(=O)[C@H](CCCNC(=N)N)NC(=O)[C@H](CC(C)C)NC(=O)[C@H](Cc1ccccc1)NC(=O)[C@H](CC(=O)O)NC(=O)[C@H](C)NC(=O)[C@H](CC(C)C)NC(=O)[C@H](CCCNC(=N)N)NC(=O)[C@H](CCC(N)=O)NC(=O)[C@@H](NC(=O)[C@H](C)NC(=O)[C@H](C)NC(=O)[C@@H](NC(=O)[C@H](CO)NC(=O)[C@H](CC(C)C)NC(=O)[C@H](CCC(N)=O)NC(=O)[C@H](CO)NC(=O)[C@H](C)NC(=O)CC[C@H](NC(=O)CCCCCCCCCCCCCCCCCCC(=O)O)C(=O)O)[C@@H](C)O)[C@@H](C)O)[C@@H](C)O)C(=O)N[C@@H](CC(C)C)C(=O)N1CCC[C@H]1C(=O)N1CCC[C@H]1C(=O)N[C@H](C(=O)N[C@@H](CC(N)=O)C(=O)N[C@H](C(=O)NCC(=O)N[C@@H](CO)C(=O)N[C@@H](CC(N)=O)C(=O)N[C@H](C(=O)N1C[C@H](O)C[C@H]1C(N)=O)[C@@H](C)O)C(C)C)[C@@H](C)O [M49] ({C20 diacid-γGlu}-ASQLSTAATQRLADFLRHSSTNLKPILPPTNVGSNT[Hyp]-NH2)	163	0.08	8.5	
